Reference: US4877803A, “Bis-dioxopiperazine derivatives and pharmaceutical compositions containing the same” (Zenyaku Kogyo Kabushiki Kaisha, priority 1985, dated 1989)

Experiments:
[1] = system: P388 lymphocytic leukemia cells; assay: Growth inhibition of tumor cells in vitro; format: cell-based; conditions: Mus musculus, 48 hours at 37° C., read-out: IC50 (50% inhibitory concentration of cell growth)
Description: (I) Growth Inhibition of Tumor Cells in Vitro:
Tumor cells were collected aseptically with capillary tube from ascites in CDF1 male mice transplanted intraperitoneally with 1×10^6 cells of P388 lymphocytic leukemia 5 days Before. Cell suspension was prepared at 5×10^4 cells/0.5 ml in a RPMI1640 medium supplemented with 10% fetal calf serum, Kanamycin (0.1 mg/ml) and 2-hydroxyethyldisulfide (0.01 mm). Each sample was dissolved or suspended in the medium at a concentration of 1×10^-1 -1×10^-5 mM/ml.
A test tube with Molton stopper loosely involving 0.5 ml each of the cell suspension and the sample suspension was kept for 48 hours at 37° C. in an incubator supplied with air containing 5% carbon dioxide. Then, after addition of 4 ml of 0.25% trypsin solution, the tube was shaken for 5 minutes at 37° C. The cells harvested therefrom was counted by using of a Coulter Counter and the inhibition of cell growth was calculated by the following formula: [formula] T: number of cells in the culture containing test compound. C: number of cells in the culture of control
50% Inhibitory concentration of cell growth (IC50) was calculated based on the inhibition in various concentrations of test compound and is shown in Table I.

[2] = system: P388 lymphocytic leukemia; assay: Increase in life span on tumor-transplanted mouse (P388); format: in vivo, mouse (CDF1); conditions: intraperitoneal, 1 day after transplantation and on 5th day
Description: (II) Increase in Life Span on Tumor-transplanted Mouse: The treated group to which the compound of the present invention was administered consisted of seven mice, while the control group consisted of ten mice. Six weeks old male mice (CDF1, 25±2 g of body weight) were employed as host animals.
Tumor cells (1.0×10^6) of P388 lymphocytic leukemia were transplanted intraperitoneally into each mouse. The treatment was effected one day after the transplantation and on 5th day by administering prescribed dose of each test compound intraperitoneally to the mice.
Antitumor activity of the test compound was evaluated by the rate of increase in life span (ILS) which was calculated with the following formula. [formula] T': median survival time of treated mice C': median survival time of control mice

[3] = Acute toxicity test in mice; conditions: mouse, in vivo, ip; male ICR mice, intraperitoneal, observed for 14 days, Litchfield-Wilcoxon method
Description: The acute toxicity of the compounds of the present invention was examined by the following test.
The test group to which the compound of the present invention was administered consisted of ten mice. Five weeks old male mice (ICR, 25±2 g of body weight) were employed as test animals.

| SMILES | IC50 [1] | ILS (rate of increase in life span) ([2]; daily dose 3.0 mg/kg) | also measured |
| --- | --- | --- | --- |
| CC(CN1CC(=O)N(CN2CCOCC2)C(=O)C1)N1CC(=O)N(CN2CCOCC2)C(=O)C1 (racemic) [(B), dl-1,2-bis(4-morpholinomethyl-3,5-dioxopiperazin-1-yl)propane] | 1600 nM | 1% | ILS (rate of increase in life span) ([2]; daily dose 200 mg/kg (adequate dose)): 47% |
| C[C@H]([C@H](C)N1CC(=O)N(CN2CCOCC2)C(=O)C1)N1CC(=O)N(CN2CCOCC2)C(=O)C1 [(1), meso-2,3-bis(4-morpholinomethyl-3,5-dioxopiperazin-1-yl)butane] | 61 nM | 165% | LD50 at 336 h [3]: 10.7 mg/kg |
| C[C@H]([C@H](C)N1CC(=O)N(CN2CCSCC2)C(=O)C1)N1CC(=O)N(CN2CCSCC2)C(=O)C1 [(2), meso-2,3-bis(4-thiomorpholinomethyl-3,5-dioxopiperazin-1-yl)butane] | 230 nM |  | ILS (rate of increase in life span) ([2]; daily dose 1.8 mg/kg): > 194% |
| C[C@H]([C@H](C)N1CC(=O)N(CN2CCN(c3ccccc3)CC2)C(=O)C1)N1CC(=O)N(CN2CCN(c3ccccc3)CC2)C(=O)C1 [(3), meso-2,3-bis[4-(N-phenylpiperazinomethyl)-3,5-dioxopiperazin-1-yl]butane] | 22 nM |  | ILS (rate of increase in life span) ([2]; daily dose 3.4 mg/kg): 78% |
| C[C@H]([C@H](C)N1CC(=O)N(CN2CCCCC2)C(=O)C1)N1CC(=O)N(CN2CCCCC2)C(=O)C1 [(4), meso-2,3-bis(4-piperoidinomethyl-3,5-dioxopiperazin-1-yl)butane] | 47 nM |  |  |
| CC1CC(C)CN(CN2C(=O)CN([C@H](C)[C@H](C)N3CC(=O)N(CN4CC(C)CC(C)C4)C(=O)C3)CC2=O)C1 (stereo partly drawn) [(5), meso-2,3-bis[4-(3,5-dimethylpiperidinomethyl)-3,5-dioxopiperazin-1-yl]butane] | 12 nM |  |  |
| O=C1CN(CCN2CC(=O)N(CN3CCOCC3)C(=O)C2)CC(=O)N1CN1CCOCC1 [(A), 1,2-bis(4-morpholinomethyl-3,5-dioxopiperazin-1-yl)ethane] | 2400 nM | 2% | ILS (rate of increase in life span) ([2]; daily dose 100 mg/kg (adequate dose)): 60% |
